Biological target: PKCι(h) (Homo sapiens (Human), UniProt P41743)
Experiment: KinaseProfiler kinase panel
Assay type: biochemical

Sequence of PKCι(h) (P41743 whole entry): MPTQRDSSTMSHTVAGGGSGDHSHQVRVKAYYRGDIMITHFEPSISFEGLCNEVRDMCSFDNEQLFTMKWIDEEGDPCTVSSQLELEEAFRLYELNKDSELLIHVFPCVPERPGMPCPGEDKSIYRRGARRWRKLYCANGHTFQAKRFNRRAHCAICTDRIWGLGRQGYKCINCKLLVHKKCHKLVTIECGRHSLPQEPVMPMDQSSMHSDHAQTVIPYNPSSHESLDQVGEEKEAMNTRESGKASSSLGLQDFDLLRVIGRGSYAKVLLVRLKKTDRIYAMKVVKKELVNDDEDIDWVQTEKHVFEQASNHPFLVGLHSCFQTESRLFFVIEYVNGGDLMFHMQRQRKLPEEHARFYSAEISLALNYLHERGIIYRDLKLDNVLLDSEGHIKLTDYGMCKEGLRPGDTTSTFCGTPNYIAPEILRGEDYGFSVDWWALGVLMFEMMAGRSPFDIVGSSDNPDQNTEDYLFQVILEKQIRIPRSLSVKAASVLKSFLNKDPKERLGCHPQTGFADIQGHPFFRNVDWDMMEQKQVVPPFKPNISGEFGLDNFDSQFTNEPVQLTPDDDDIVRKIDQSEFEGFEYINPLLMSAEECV

## CCn1c(N2CCNCC2)nc2c(Br)c(Br)c(Br)c(Br)c21 [Compound 416, 4,5,6,7-tetrabromo-1-ethyl-2-(piperazin-1-yl)-1H-benzo[d]imidazole]
  remaining activity at 1 µM: 104%

Source: patent US8604217B2, “Compound, a process for its preparation, a pharmaceutical composition, use of a compound, a method for modulating or regulating serine/threonine kinases and a serine/threonine kinases modulating agent” (Selvita S.A., priority 2009, dated 2013)
